In ChEMBL document CHEMBL3351835, “Anti-inflammatory diterpenoids from the root bark of Acanthopanax gracilistylus” (J Nat Prod, 2014):

How the values were obtained:
Type in all cases: functional, cell-based
PBMC [1] = test: Antiinflammatory activity in human PBMC assessed as inhibition of LPS-induced IL-1beta expression pretreated 1 hr before LPS challenge followed by incubated for 16 hrs by flow cytometry
PBMC [2] = test: Antiinflammatory activity in human PBMC assessed as inhibition of LPS-induced IL-8 expression pretreated 1 hr before LPS challenge followed by incubated for 16 hrs by flow cytometry
PBMC [3] = test: Antiinflammatory activity in human PBMC assessed as inhibition of LPS-induced TNFalpha expression pretreated 1 hr before LPS challenge followed by incubated for 16 hrs by flow cytometry

**Q.** C[C@]12CCC3=C(CC[C@@H]4[C@](C)(C(=O)O)CCC[C@@]34C)[C@H]1OC[C@@H]2O was tested. Which IC50 (PBMC [1]) did it give?
**A.** > 10000 nM

**Q.** And the IC50 (PBMC [2])?
**A.** 1 nM

**Q.** What about the IC50 (PBMC [3]) of the same compound?
**A.** > 10000 nM

**Q.** COC(=O)[C@]1(C)CCC[C@@]2(C)[C@@H]3CC[C@@H]4C[C@]3(C=C4C=O)CC[C@@H]21 was tested. Which IC50 (PBMC [1]) did it give?
**A.** 5 nM

**Q.** And the IC50 (PBMC [2])?
**A.** 6 nM

**Q.** And the IC50 (PBMC [3])?
**A.** 400 nM

**Q.** Which IC50 (PBMC [1]) does the source give for C=C1C[C@@]23CC[C@H]4[C@@](C)(CCC[C@@]4(C)C(=O)O)[C@@H]2CC[C@@H]1C3 [KAURENOIC ACID] here?
**A.** 10 nM

**Q.** What about the IC50 (PBMC [2]) of the same compound?
**A.** 7700 nM

**Q.** And the IC50 (PBMC [3])?
**A.** 2 nM

**Q.** For C[C@@]12CCC[C@@](C)(C(=O)O)[C@H]1CC[C@]13C=C(CO)[C@H](CC[C@H]12)C3, which IC50 (PBMC [1]) is on record?
**A.** 800 nM

**Q.** What about the IC50 (PBMC [2]) of the same compound?
**A.** > 10000 nM

**Q.** And the IC50 (PBMC [3])?
**A.** 10 nM

**Q.** For C[C@@]12CCC[C@@](C)(C(=O)O)[C@H]1CC[C@@]13C[C@@H](CC[C@@H]21)[C@]1(CO)O[C@H]31, which IC50 (PBMC [1]) is on record?
**A.** 100 nM

**Q.** What about the IC50 (PBMC [2]) of the same compound?
**A.** > 10000 nM

**Q.** What about the IC50 (PBMC [3]) of the same compound?
**A.** 60 nM

**Q.** Which results are given for Cc1cc(O)c2c(c1O)C(=O)C[C@@H]1[C@](C)(C(=O)O)CCC[C@@]21C?
**A.** IC50 (PBMC [1]): > 10000 nM; IC50 (PBMC [2]): > 10000 nM; IC50 (PBMC [3]): 8 nM

**Q.** Which results are given for C[C@@]12CCC[C@@](C)(C(=O)O)[C@H]1CC(=O)[C@@]13C[C@@H](CC[C@H]12)[C@H](O)C3?
**A.** IC50 (PBMC [1]): 4 nM; IC50 (PBMC [2]): > 10000 nM; IC50 (PBMC [3]): 20 nM

**Q.** Which results are given for C=C[C@]1(C)C=C2C(=O)C[C@H]3[C@@](C)(CCC[C@@]3(C)C(=O)O)[C@@H]2CC1?
**A.** IC50 (PBMC [1]): 30 nM; IC50 (PBMC [2]): > 10000 nM; IC50 (PBMC [3]): 7 nM

**Q.** With C[C@@H]1C[C@H]2[C@@H]3CCC4=CC(=O)C=C[C@]4(C)[C@@]3(F)[C@@H](O)C[C@]2(C)[C@@]1(O)C(=O)CO [DEXAMETHASONE] as the compound, how does the IC50 (PBMC [1]) read?
**A.** 8 nM

**Q.** What about the IC50 (PBMC [2]) of the same compound?
**A.** 9 nM

**Q.** And the IC50 (PBMC [3])?
**A.** 2 nM

**Q.** Which IC50 (PBMC [1]) does the source give for C[C@@]12CCC[C@@](C)(C(=O)O)[C@H]1CC(=O)[C@]13C[C@@H](CO)[C@H](CC[C@H]12)C3 here?
**A.** 100 nM

**Q.** What about the IC50 (PBMC [2]) of the same compound?
**A.** > 10000 nM

**Q.** And the IC50 (PBMC [3])?
**A.** 100 nM

**Q.** Which IC50 (PBMC [1]) does the source give for C[C@@]12CCC[C@@](C)(C(=O)O)[C@H]1CC(=O)[C@]13CC(=O)[C@H](CC[C@H]12)C3 here?
**A.** 1 nM

**Q.** What about the IC50 (PBMC [2]) of the same compound?
**A.** > 10000 nM

**Q.** What about the IC50 (PBMC [3]) of the same compound?
**A.** 2 nM

**Q.** With C[C@@]12CCC[C@@](C)(C(=O)O)[C@H]1CC[C@]13C=C(C(=O)O)[C@H](CC[C@H]12)C3 as the compound, how does the IC50 (PBMC [1]) read?
**A.** 7500 nM

**Q.** And the IC50 (PBMC [2])?
**A.** 3 nM

**Q.** And the IC50 (PBMC [3])?
**A.** 2100 nM
